Measured values from PMC11702208 (RSC Advances, 2025).
“And” between values parts separate entries of the source, which are not always exact repeats. Identical values can stand only once.

System: T-47D cells
Assay: Annexin V-FITC/PI apoptosis assay
Type: cell-based

## CCN(CC)c1ccc(C=NNC(=O)CSc2nc3ccccc3c(=O)n2Cc2ccc(S(N)(=O)=O)cc2)c(O)c1 [Compound 5, 4-((2-((2-(2-(4-(Diethylamino)-2-hydroxybenzylidene)hydrazineyl)-2-oxoethyl)thio)-4-oxoquinazolin-3(4H)-yl)methyl)benzenesulfonamide]
  Apoptosis Early: 9.3% and 9.28%
  Apoptosis Late: 14.8% and 14.75%
  Apoptosis Total: 31.07%
  Necrosis: 7.04%
